The text below walks through data of paper PMC8280143, “A novel dephosphorylation targeting chimera selectively promoting tau removal in tauopathies” (Signal Transduction and Targeted Therapy, 2021).

Entries after “also recorded” stand apart in the source; their conditions may differ.

The subject of one assay is human tau (hTau). As to the kind of experiment: Western blotting of tau in primary neurons with hTau overexpression in the presence of MG132. The format is cell-based. As for the experimental part: (§1) Primary hippocampal neurons were prepared from E12–E15 days SD rat embryos. Briefly, pregnant rats were acutely executed, hippocampus was dissected on ice and gently minced in DME/F12 (Hyclone) then suspended in 0.125% (vol/vol) trypsin solution at 37 °C for 20 min. Enzymatic activity was stopped by fetal bovine serum. Neurons were initially kept in 10% FBS-containing DME/F12 for 4–6 h, and subsequently cultured in Neurobasal (Hyclone) with 2% B27, 1% glutamax and 1% penicillin–streptomycin (Thermo Fisher Scientific) in dishes pre-coated with 100 μg/mL poly-D-lysine. Serum was gradually removed by replacing half of the medium for each time within the following 2 days. Especially, to inhibit the proteasome-dependent proteolysis, the cultured hippocampal neurons were treated with 5 μM MG132 for 5 h before harvest.
(§2) Cultured cells or hippocampus tissues were collected on ice, and homogenized with RIPA lysis buffer containing 50 mM Tris-HCl, 100 mM NaCl, 1% Triton X-100, 5 mM EDTA, and 1:100 PMSF, and then centrifuged at 12,000 × g for 20 min. The supernatant was collected for the analysis of soluble proteins. In some experiments, the pellets were further incubated with 8% SDS buffer at 37 °C and then ultrasound for 60 times to reach a complete resuspension for the analysis of insoluble tau. Protein concentration was measured through BCA assays (Thermo Fisher). Equal amount of protein from each sample were separated in SDS-PAGE gels, and then transferred onto nitrocellulose or 0.22 μm polyvinylidene fluoride membranes (Merck Millipore). The membranes were blocked with 5% BSA, and incubated in turn with primary and horseradish peroxidase-conjugated secondary antibodies: pS199-Tau (44734G, Invitrogen, 1:2000), pT205-Tau (11108-1, Signalway, 1:2000), pS396-Tau (11102, Signalway, 1:2000), pS404-Tau (11112, Signalway, 1:2000), AT8 (MN1020, Thermo Fisher, 1:1000), Tau5 (ab80579, Abcam, 1:1000), Tau46 (T9450, Sigma, 1:1000), PP2A-Bα (4953, Cell signaling, 1:1000), Phospho-Ser/Thr (ab17464, Abcam1:1000), Ubiquitin (ab7254, Abcam, 1:1000), MAP2 (AB5622, Millipore, 1:2000), hTau-N368 (a generous gift from Prof. Keqiang Ye, Emory University School of Medicine, 1:1000), DEPTAC (developed by Daian Biotechnology, Wuhan, China, 1:500), β-actin (ab6276, Abcam, 1:2000). HRP-conjugated goat anti-rabbit IgG (A0208, Beyotime, 1:3000), HRP-conjugated goat anti-mouse IgG (A0216, Beyotime, 1:3000). Blots were visualized using ECL luminol reagent (P0018FS, Beyotime), and quantified using ImageJ software.
(In general: In western blotting, separated proteins are transferred to a membrane and probed.)

Assay [1] relates to tau. Kind of assay: Tau Ser/Thr phosphorylation and ubiquitination in the presence of MG132. The format is cell-based, rat. The procedure: as §1, with “Especially, to inhibit the proteasome-dependent proteolysis, the cultured hippocampal neurons were treated with 5 μM MG132 for 5 h before harvest.” left out
Cultured cells or hippocampus tissues were collected on ice, and homogenized with RIPA lysis buffer containing 50 mM Tris-HCl, 100 mM NaCl, 1% Triton X-100, 5 mM EDTA, and 1:100 PMSF, and then centrifuged at 12,000 × g for 20 min. […] Protein concentration was measured through BCA assays (Thermo Fisher). […] Blots were visualized using ECL luminol reagent (P0018FS, Beyotime), and quantified using ImageJ software.
For co-immunoprecipitation, cultured cells were lysed on ice with RIPA buffer for 10 min containing 1:100 PMSF. […] Immunoprecipitants were subsequently analyzed through Western blotting.

Assay [2] relates to tau. As to the kind of experiment: Hippocampal phospho-tau and total tau in 3×Tg AD mice. Type of assay: in vivo, mouse. As to conditions: 9-month 3×Tg AD mice, 5 mM, 1 μL. The procedure:
(§3) Mice weighting 20–30 g were anesthetized with 1% pentobarbital sodium (35 mg/kg), and fixed in a stereotaxic instrument (RWD). The scalp was sterilized with iodophors and 75% ethanol, and incised along the skull midline. Holes were drilled. Adeno-associated virus or DEPTAC was injected into the dorsal DG (posterior 1.9 mm, lateral ±1.1 mm from the bregma, ventral −2.0 from the skull) or lateral ventricle (posterior 0.22 mm, lateral ±1.0 mm from the bregma, ventral −2.5 from the skull), respectively, using an automatic microinjection system (World Precision Instruments, USA) at a rate of 0.05 μL/min. The needle syringe was left in place for 5 min before withdrawal. The skin was sutured and sterilized with iodophors. Mice were placed on thermos tank for analepsia.
(§4) For 2-month male C57BL/6 mice, 10 mM FITC-labeled or unlabeled-DEPTAC were directly injected through the tail vein or lateral ventricle for the evaluation of BBB-penetrability. For 9-month 3×Tg AD mice or Tau368 (20–30 g body weight), unlabeled-DEPTAC (5 mM, 1 μL for each time) was delivered for once into the lateral ventricle through direct stereotaxic injection, or repeatedly administrated through guiding cannulas (RWD, Shenzhen, China) implanted into the lateral ventricle once every 3 days for a consecutive month to test its dephosphorylation efficiency. Mice were restricted in a custom designed device and stayed awake during drug administration, and sacrificed at 24 h post the single or last DEPTAC administration.
Cultured cells or hippocampus tissues were collected on ice, and homogenized with RIPA lysis buffer containing 50 mM Tris-HCl, 100 mM NaCl, 1% Triton X-100, 5 mM EDTA, and 1:100 PMSF, and then centrifuged at 12,000 × g for 20 min. The supernatant was collected for the analysis of soluble proteins. In some experiments, the pellets were further incubated with 8% SDS buffer at 37 °C and then ultrasound for 60 times to reach a complete resuspension for the analysis of insoluble tau. Protein concentration was measured through BCA assays (Thermo Fisher). Equal amount of protein from each sample were separated in SDS-PAGE gels, and then transferred onto nitrocellulose or 0.22 μm polyvinylidene fluoride membranes (Merck Millipore). […] Blots were visualized using ECL luminol reagent (P0018FS, Beyotime), and quantified using ImageJ software.

The next assay has as its system endogenous mouse tau. As to the kind of experiment: Hippocampal endogenous mouse tau in NW-administrated Tau368 mice. Type of assay: in vivo. As to conditions: 30 μg total protein. As for the experimental part: as §3, §4, §2
[3] abbreviates: 5 μM MG132 for 5 h before harvest, *p < 0.05, n = 3 cell wells.
[4] abbreviates: intracerebroventricular, once every 3 days for a consecutive month, *p < 0.05, n = 4.
Setting [5] is: NW Tau368 mice (no dox), n = 3–4.

Turning to “(1) YQQYQDATADEQG, originates from the porcine β-tubulin 422–434 for recognizing and binding tau proteins.[5],[6] (2) GSGS, a linker for increasing the flexibility of the peptide.[15] (3) KKVAVVRTPPKSP, for recruiting PP2A-Bα,[16] and (4) RRRRRRRR [DEPTAC, DEPhosphorylation TArgeting Chimera; 38 amino acid residues, C185H314N72O56]”, the “efficiency of tau dephosphorylation in the presence of MG132” value in the assay on human tau (hTau) (5 μM MG132, compared with absence of MG132, n = 3 cell wells) is given as “reduced efficiency; also recorded: less efficiency”. The “reduction of total tau (Tau5 and Tau46) in the presence of MG132” value in the assay with human tau (hTau) (5 μM MG132 for 5 h before harvest) is listed as “abolished”. Moreover, in the assay on human tau (hTau) (setting [3]), the “tau dephosphorylation at AT8 epitope in the presence of MG132” value is recorded as “still significant” and the “tau dephosphorylation at pT205 in the presence of MG132” value is “still significant”. In addition, in the assay on tau [1], the “tau phosphorylation at Ser/Thr residues” value is listed as “downregulation; also recorded: decreased” and the tau ubiquitination entry is recorded as “upregulation; also recorded: upregulated”. Moreover, in the assay on tau [2] (setting [4]), the “hippocampal phospho-tau, repeated delivery” value was “significantly reduced” and the “hippocampal total tau, repeated delivery” value was “significantly reduced”. For the same substance, in the assay with tau [2] (once, n = 4), the “hippocampal phospho-tau, delivered for once” value is reported as “tended to decrease; also recorded: relatively limited” and the “hippocampal total tau, delivered for once” value was “tended to decrease; also recorded: relatively limited”. In the assay with endogenous mouse tau (setting [5]), the “endogenous mouse tau phosphorylation at Ser199” value is on record as “limited effect”, the “endogenous mouse tau phosphorylation at Ser396” value was “significantly downregulate”, the “endogenous mouse tau phosphorylation at Ser404” value is recorded as “significantly downregulate” and the “endogenous mouse tau phosphorylation at Thr205” value is “significantly downregulate”. Further, in the assay on endogenous mouse tau (setting [5]), the “endogenous mouse tau, AT8 epitope” value is given as “limited effect” and the “endogenous mouse total tau” value is listed as “limited effect”. In addition, the “efficiency of DEPTAC on mouse tau” value in the assay on endogenous mouse tau (NW Tau368 mice, overall, compared with dox group) is “relatively limited”.
